Measurements published in ChEMBL document CHEMBL1201862, “PubChem BioAssay data set” (2004).
Active and inactive are the calls of the source.

Assays:
[1] = target: DNA dC->dU-editing enzyme APOBEC-3G (Homo sapiens, UniProt Q9HC16); assay: Dose Response confirmation of small molecule APOBEC3G DNA Deaminase Inhibitors via a fluorescence-based single-stranded DNA deaminase assay. [Related pubchem assays (depositor defined):AID493012, AID493028]; type: functional
[2] = target: T1, Eukaryotic translation initiation factor 2-alpha kinase 3 (Homo sapiens, UniProt Q9NZJ5); assay: Dose response cell-based high-throughput screening assay to measure PERK inhibition. [Related pubchem assays: 1416 ]; type: functional
T1 sequence (Q9NZJ5 whole entry): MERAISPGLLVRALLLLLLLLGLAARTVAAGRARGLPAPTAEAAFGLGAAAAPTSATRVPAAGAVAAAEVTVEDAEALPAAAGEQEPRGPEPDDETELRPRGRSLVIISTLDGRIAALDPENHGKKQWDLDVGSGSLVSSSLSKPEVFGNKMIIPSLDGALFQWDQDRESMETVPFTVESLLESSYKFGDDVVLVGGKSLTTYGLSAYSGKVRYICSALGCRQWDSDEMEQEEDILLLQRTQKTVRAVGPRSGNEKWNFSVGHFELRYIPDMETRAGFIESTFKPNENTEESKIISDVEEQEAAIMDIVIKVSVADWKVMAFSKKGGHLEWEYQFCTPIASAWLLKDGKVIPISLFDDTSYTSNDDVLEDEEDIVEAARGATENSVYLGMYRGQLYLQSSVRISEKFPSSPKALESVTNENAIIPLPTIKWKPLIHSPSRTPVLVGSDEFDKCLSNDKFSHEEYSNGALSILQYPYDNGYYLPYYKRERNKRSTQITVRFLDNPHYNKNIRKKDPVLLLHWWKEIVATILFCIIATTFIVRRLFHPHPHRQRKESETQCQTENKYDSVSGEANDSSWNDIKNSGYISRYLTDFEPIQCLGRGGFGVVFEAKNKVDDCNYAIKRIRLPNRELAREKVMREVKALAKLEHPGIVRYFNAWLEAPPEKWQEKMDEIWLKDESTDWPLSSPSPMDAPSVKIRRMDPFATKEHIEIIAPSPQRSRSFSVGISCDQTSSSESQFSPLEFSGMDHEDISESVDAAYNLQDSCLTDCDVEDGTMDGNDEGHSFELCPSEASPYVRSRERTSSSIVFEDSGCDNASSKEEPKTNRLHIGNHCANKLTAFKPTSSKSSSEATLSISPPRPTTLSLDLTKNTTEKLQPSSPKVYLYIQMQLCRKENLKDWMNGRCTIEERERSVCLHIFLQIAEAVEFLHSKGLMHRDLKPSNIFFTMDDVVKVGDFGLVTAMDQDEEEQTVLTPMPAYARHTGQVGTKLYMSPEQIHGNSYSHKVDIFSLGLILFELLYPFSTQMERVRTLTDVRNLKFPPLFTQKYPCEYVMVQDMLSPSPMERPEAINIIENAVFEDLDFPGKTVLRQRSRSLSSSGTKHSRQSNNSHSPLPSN

[3] = target: T1, Eukaryotic translation initiation factor 2-alpha kinase 3; assay: Counterscreen assay for PERK inhibitors: Dose response cell-based high throughput screening assay to measure inhibition of PERK at 6 hours. [Related pubchem assays: 1522, 1416 ]; type: functional
[4] = target: Voltage-dependent T-type calcium channel subunit alpha-1H (Homo sapiens, UniProt O95180); type: functional;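 note: channel activity triggered by adding a high calcium stimulation buffer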
X-box-binding protein 1 = X-box-binding protein 1 (Homo sapiens, UniProt P17861); type: functional, Cricetulus griseus;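 note: confirmatory dose-response counter-screen serving a CHOP assay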
Beta-galactosidase = Beta-galactosidase (Escherichia coli, UniProt Q8VNN2); assay: detection-enzyme interference by beta-gal modulators – biochemical, E. coli enzyme, set 3, artefact control for CCR6 antagonist project, dose response (AID 504712); type: functional
[5] = Luminescence Cell-Based Dose Confirmation HTS to Identify Activators of 5'UTR Stem-Loop Driven Alpha-Synuclein mRNA Translation in H4 Neuroglioblastoma Cells. [Related pubchem assays: 1829 (Project Summary), 1814 (Primary HTS)]; type: functional
[6] = Luminescence Cell-Based Dose Response HTS to Identify Activators of Luciferase Translation or Activity in H4 […] Cells. [Related pubchem assays: 1829 (Project Summary), 1814 (Primary HTS)]; type: functional
H4 = assay: Luminescence Cell-Based Dose Response HTS to Identify Activators of 5'UTR Stem-Loop Driven Prion Protein mRNA Translation in H4 Neuroglioblastoma Cells. [Related pubchem assays: 1829 (Project Summary), 1814 (Primary HTS)]; type: functional; details: Homo sapiens
cells = type: functional, cell-based
HeLa = assay: viability loss in HeLa cells – cell-based, 24 h, cherry-picked samples, cytotoxicity control, dose response (AID 504726); type: functional; details: Homo sapiens;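 note: potency for cytotoxicity as loss of luminescence signal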
[7] = target: T2, Endoribonuclease toxin MazF (Escherichia coli K-12, UniProt P0AE70); assay: activation of MazEF endoribonuclease cleavage – biochemical, fluorescence, single-stranded RNA substrate, uHTS hits, dose response (AID 588481); type: functional
T2 sequence (P0AE70 whole entry): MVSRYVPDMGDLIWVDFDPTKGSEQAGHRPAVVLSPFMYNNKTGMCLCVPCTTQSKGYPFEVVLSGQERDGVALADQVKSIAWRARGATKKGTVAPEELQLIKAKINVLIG

[8] = target: T2, Endoribonuclease toxin MazF; assay: substrate-only fluorescence increase artefacts – biochemical, single-stranded RNase substrate, counter-screen for MazEF activator project, dose response (AID 588502); type: functional
[9] = target: T3, Oxysterols receptor LXR-beta (Homo sapiens, UniProt P55055); type: functional, cell-based;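 note: agonist activity at LXR measured by a cell-based luminescence readout across a dose range, run as a counterscreen for daf-12 agonists; HEK293 cells with Gal4-LXR fusion and GAL4-driven luciferase reporter; potency for activation of Gal4-LXR reporter so compounds are agonists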
T3 sequence (P55055 whole entry): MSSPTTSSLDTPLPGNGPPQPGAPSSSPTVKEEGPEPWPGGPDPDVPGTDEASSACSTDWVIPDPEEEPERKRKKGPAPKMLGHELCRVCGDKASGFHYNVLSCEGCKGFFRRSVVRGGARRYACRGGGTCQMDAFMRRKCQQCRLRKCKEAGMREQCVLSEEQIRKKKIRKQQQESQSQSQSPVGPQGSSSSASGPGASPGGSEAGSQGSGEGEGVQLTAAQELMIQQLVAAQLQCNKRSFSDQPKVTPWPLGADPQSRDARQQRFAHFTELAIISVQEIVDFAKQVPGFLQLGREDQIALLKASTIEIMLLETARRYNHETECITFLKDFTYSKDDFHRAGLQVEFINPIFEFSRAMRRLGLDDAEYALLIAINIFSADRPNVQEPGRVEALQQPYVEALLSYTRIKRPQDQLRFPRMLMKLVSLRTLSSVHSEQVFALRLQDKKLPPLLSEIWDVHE

[10] = target: Eukaryotic translation initiation factor 4H (Homo sapiens, UniProt Q15056); assay: eIF4H binding inhibition – biochemical, uHTS, fluorescence polarization, translation initiation inhibitor project, primary screen (AID 2012)
[11] = target: Polyadenylate-binding protein 1 (Homo sapiens, UniProt P11940); assay: blockers of PABP interaction with poly(A) – biochemical, fluorescence polarization, […] (AID 2014)
Paired box protein Pax-8 = Paired box protein Pax-8 (Homo sapiens, UniProt Q06710); assay: PAX8 transcriptional activity inhibition in RMG-I – RMG-I cells, luciferase, cherry-pick, dose response (AID 687027); type: functional, cell-based;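 note: luciferase reporter driven by Pax8 target thyroperoxidase promoter measured by SteadyGlo luminescence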
[12] = target: T4, Tyrosine-protein phosphatase non-receptor type 7 (Homo sapiens, UniProt P35236); type: functional
T4 sequence (P35236 whole entry): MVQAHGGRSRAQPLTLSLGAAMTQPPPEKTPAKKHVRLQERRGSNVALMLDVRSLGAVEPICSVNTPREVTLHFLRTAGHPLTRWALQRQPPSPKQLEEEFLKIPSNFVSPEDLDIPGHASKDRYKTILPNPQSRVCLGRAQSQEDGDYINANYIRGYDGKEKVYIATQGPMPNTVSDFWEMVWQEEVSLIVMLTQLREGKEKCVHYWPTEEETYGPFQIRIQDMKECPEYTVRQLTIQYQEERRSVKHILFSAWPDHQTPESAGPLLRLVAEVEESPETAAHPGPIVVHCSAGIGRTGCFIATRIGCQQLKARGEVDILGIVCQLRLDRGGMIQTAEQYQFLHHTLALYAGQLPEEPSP

[13] = target: Glyceraldehyde-3-phosphate dehydrogenase (Homo sapiens, UniProt P04406)
[14] = target: Heat shock cognate 71 kDa protein (Homo sapiens, UniProt P11142); assay: In Vitro Hsc70 Dose Response Fluorescence Polarization Assay. [Related pubchem assays: 1072 ]
[15] = target: Heat shock 70 kDa protein 1A (Homo sapiens, UniProt P0DMV8); assay: inhibition of Hsp70 binding activity – biochemical, fluorescence polarization, SAR follow-up (AID 1072)
[16] = target: T5, Dual specificity protein phosphatase 6 (Rattus norvegicus, UniProt Q64346)
T5 sequence (Q64346 whole entry): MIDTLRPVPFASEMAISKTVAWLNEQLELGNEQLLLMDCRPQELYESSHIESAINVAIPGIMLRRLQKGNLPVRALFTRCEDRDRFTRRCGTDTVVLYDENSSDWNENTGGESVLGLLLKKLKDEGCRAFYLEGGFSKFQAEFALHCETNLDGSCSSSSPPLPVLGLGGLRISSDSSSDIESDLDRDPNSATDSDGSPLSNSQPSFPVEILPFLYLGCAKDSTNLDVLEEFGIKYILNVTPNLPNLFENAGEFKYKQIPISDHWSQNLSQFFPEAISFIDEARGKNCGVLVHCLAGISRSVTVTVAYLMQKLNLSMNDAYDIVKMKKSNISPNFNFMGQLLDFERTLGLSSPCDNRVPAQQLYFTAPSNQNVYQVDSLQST

[17] = target: T5, Dual specificity protein phosphatase 6; type: functional

Chain of Heat shock 70 kDa protein 1A (P0DMV8 whole entry): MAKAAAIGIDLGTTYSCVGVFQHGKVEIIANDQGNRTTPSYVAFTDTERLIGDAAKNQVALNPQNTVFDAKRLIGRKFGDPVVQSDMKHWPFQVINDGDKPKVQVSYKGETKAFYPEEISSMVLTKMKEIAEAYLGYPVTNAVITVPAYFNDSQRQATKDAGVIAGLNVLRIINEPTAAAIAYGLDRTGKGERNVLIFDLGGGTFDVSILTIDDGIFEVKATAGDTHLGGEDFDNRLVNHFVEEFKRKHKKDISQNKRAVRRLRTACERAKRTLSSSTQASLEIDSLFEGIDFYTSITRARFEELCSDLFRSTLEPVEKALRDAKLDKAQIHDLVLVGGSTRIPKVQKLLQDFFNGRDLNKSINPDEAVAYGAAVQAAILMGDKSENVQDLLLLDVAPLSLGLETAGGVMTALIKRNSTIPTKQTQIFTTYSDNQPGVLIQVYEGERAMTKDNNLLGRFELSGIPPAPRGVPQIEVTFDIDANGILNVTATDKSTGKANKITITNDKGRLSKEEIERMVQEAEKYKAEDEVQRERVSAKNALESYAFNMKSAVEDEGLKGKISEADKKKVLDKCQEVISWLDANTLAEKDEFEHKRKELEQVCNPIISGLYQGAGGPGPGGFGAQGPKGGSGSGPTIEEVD
Chain of DNA dC->dU-editing enzyme APOBEC-3G (Q9HC16 whole entry): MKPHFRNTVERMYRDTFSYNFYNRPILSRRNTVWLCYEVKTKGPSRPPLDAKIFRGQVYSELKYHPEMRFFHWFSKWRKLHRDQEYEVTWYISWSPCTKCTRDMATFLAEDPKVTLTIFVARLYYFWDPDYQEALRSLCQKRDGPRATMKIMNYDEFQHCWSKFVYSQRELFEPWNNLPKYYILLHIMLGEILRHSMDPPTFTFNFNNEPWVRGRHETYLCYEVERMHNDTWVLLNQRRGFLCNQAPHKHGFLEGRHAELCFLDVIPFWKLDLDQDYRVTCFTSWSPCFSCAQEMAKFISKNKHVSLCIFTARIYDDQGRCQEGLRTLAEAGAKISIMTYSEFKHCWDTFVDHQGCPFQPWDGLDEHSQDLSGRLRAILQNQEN
Chain of Voltage-dependent T-type calcium channel subunit alpha-1H (O95180 whole entry): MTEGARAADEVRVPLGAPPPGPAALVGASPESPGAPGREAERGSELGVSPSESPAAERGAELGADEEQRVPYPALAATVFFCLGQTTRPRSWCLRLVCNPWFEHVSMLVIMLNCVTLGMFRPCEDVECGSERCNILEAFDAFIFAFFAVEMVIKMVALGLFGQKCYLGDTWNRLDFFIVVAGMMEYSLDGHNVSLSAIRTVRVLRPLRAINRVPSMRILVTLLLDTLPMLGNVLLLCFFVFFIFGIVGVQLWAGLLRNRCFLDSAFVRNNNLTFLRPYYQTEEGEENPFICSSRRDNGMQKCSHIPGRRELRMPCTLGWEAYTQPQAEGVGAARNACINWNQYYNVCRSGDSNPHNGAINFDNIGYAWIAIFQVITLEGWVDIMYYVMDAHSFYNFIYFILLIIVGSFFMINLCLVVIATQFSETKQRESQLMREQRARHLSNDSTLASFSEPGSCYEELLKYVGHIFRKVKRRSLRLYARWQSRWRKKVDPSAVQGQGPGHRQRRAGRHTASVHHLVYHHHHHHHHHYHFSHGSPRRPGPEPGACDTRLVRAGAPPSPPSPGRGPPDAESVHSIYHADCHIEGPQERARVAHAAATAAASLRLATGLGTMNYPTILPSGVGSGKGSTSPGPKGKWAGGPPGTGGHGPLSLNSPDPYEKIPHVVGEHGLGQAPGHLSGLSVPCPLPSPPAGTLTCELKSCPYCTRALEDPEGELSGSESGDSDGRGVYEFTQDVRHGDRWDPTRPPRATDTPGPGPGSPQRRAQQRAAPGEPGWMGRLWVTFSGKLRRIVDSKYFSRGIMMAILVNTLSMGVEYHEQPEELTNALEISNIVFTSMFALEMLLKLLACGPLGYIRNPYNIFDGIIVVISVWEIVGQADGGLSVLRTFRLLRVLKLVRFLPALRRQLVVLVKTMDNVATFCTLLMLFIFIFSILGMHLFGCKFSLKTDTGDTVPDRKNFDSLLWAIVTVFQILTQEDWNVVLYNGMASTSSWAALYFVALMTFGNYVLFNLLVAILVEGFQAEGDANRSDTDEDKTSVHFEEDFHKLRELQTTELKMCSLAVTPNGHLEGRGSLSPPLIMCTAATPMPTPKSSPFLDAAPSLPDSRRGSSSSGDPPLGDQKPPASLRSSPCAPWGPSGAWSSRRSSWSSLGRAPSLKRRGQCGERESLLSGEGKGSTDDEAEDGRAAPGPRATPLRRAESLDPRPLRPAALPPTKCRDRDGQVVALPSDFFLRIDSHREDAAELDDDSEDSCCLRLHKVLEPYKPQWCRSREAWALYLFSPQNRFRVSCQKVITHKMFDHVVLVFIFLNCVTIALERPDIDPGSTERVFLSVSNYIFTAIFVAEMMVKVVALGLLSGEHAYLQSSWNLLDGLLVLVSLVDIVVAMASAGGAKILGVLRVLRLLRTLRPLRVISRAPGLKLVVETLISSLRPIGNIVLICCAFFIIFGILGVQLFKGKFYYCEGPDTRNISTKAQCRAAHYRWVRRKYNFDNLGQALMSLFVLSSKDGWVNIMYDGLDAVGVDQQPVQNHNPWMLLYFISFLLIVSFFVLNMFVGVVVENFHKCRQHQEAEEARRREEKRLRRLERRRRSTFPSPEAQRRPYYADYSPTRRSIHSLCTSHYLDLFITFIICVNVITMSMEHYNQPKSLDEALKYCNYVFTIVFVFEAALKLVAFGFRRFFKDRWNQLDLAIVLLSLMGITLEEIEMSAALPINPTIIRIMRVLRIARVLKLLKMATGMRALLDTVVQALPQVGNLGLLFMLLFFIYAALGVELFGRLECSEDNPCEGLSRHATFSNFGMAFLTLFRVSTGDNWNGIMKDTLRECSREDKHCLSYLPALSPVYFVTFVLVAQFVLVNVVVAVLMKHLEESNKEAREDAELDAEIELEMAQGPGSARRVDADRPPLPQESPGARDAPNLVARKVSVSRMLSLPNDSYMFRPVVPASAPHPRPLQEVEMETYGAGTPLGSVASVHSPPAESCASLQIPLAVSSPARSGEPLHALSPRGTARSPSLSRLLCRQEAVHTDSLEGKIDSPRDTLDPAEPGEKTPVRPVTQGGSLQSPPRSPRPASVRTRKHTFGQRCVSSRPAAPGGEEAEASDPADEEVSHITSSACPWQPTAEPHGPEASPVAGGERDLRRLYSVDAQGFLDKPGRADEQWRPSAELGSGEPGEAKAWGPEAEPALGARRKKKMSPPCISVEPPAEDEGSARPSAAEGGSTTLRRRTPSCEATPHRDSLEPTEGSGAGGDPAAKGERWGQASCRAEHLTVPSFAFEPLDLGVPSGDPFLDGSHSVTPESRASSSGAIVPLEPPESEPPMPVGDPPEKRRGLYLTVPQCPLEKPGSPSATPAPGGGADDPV
Chain of Glyceraldehyde-3-phosphate dehydrogenase (P04406 whole entry): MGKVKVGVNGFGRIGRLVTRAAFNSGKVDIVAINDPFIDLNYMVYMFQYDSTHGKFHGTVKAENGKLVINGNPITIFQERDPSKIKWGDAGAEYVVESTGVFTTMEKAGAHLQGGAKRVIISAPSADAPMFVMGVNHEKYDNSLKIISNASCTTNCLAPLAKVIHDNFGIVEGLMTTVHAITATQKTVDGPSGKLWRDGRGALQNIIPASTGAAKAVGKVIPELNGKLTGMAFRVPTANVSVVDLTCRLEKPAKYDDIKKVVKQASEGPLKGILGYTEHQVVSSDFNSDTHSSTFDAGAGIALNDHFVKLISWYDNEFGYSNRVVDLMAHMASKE
Chain of Heat shock cognate 71 kDa protein (P11142 whole entry): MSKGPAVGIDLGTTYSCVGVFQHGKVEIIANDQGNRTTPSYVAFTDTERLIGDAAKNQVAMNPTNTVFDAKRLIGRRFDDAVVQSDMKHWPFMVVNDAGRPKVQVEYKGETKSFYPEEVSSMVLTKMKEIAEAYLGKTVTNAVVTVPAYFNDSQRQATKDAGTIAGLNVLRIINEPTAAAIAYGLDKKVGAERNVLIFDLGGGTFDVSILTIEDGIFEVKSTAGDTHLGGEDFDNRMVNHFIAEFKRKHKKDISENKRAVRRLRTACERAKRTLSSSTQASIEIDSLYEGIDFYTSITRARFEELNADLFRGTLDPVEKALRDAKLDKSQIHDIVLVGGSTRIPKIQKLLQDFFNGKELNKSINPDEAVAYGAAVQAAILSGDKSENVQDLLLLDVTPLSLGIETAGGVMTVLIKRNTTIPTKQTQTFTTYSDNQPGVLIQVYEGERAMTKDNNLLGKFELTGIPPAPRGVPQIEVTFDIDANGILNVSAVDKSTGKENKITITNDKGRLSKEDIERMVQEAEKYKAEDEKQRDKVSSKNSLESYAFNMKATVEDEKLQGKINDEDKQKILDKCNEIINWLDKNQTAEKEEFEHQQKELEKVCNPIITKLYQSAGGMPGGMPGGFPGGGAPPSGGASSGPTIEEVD
Chain of X-box-binding protein 1 (P17861 whole entry): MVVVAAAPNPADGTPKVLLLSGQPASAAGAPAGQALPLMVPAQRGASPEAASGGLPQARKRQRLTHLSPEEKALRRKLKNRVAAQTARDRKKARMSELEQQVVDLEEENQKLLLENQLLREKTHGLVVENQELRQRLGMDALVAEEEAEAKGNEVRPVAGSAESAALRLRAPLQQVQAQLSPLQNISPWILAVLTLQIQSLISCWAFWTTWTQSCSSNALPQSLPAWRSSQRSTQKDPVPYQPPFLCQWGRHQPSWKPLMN

CSc1nc2c(c(=O)[nH]c(=O)n2C)n1Cc1ccc(Cl)cc1
IC50 [1]: 65.2 µM (active)

CC(C)Cc1cc(C(=O)NCc2cccs2)no1
EC50 [2]: > 55.7 µM (not active)
EC50 [3]: > 55.7 µM (not active)

Cn1cccc1Cc1nnc(SCC(=O)Nc2ccc(F)cc2F)n1-c1ccc(F)cc1
EC50 [4]: 4.6 µM (active)

C[C@@H](C(=O)Nc1ccc2ccccc2c1)[C@@H]1C[C@@]1(C)[C@@H](NC(=O)c1ccccc1)c1ccccc1
EC50 [4]: 2.95 µM (active)

CC(C)Cn1c2c(c(=O)[nH]c1=O)C(C(F)(F)F)(C(F)(F)F)NC(CCC1CCCCC1)=N2
Absolute IC50 (XBP1) (X-box-binding protein 1): 10 µM

CC(C)c1ccc(O)c(NC(=S)NC(=O)c2ccc3c(c2)OCO3)c1
IC50 (Beta-galactosidase): > 66.6 µM (inactive)

O=c1c2cccc(Cl)c2nc2n1Cc1ccccc1-2
EC50 [5]: 23.4 µM (active)
EC50 [6]: 64.2 µM (active)
EC50 (H4): > 120 µM (not active)
IC50 [1]: 27.4 µM (active)

Cc1ccc(-c2cc(N)n(-c3ccc(F)cc3)n2)cc1
EC50 [2]: > 55.7 µM (not active)
EC50 (cells): > 350 µM (not active)
EC50 [3]: > 55.7 µM (not active)

Oc1[nH]c2ccccc2c1N=Nc1ccccc1F
EC50 [5]: 4.39 µM (active)
EC50 [6]: 8.29 µM (active)
EC50 (H4): > 120 µM (not active)
AC50 (HeLa): 100 µM (active)
EC50 [7]: > 99 µM (inactive)
EC50 [8]: 31.7 µM (inactive)
EC50 [9]: > 67.6 µM (inactive)

C[C@H](NC(=O)c1ccco1)C(=O)Nc1cccc([N+](=O)[O-])c1
IC50 [10]: > 100 µM (inactive)
IC50 [11]: > 100 µM (inactive)
AC50 (Paired box protein Pax-8): 59.2 µM (active)

NS(=O)(=O)c1ccc2c(c1)C1C=CCC1C(C(=O)O)N2 (stereo unspecified)
IC50 [12]: 47.3 µM (active)
IC50 [13]: 62.2 µM (active)
IC50 [14]: > 100 µM (not active)
IC50 [15]: 1.97 µM (active)
IC50 [16]: > 100 µM (inactive)
IC50 [17]: > 100 µM (inactive)

CC(C)COC(=O)c1ccc2c(c1)C1C=CCC1C(C(=O)O)N2 (stereo unspecified)
IC50 [12]: 44.8 µM (active)
IC50 [13]: 87.3 µM (active)
IC50 [14]: 164 µM (active)
IC50 [15]: 32.5 µM (active)
IC50 [16]: 48.2 µM (active)
IC50 [17]: 55.8 µM (active)
